Assay results published in patent US20150306107A1, “SAA Derivative Compound Restores eNOS And Inhibits Oxidative Stress-Induced A Diseases In Hypoxia” (JANSFAT BIOTECHNOLOGY CO., LTD., priority 2014, published 2015).

Legend:
VEGF = test: Western blotting of VEGF expression in isolated rat pulmonary artery ring, short-term (acute) hypoxia; format: cell-based; details: isolated pulmonary artery
Description: (§1) In our in vitro short-term experiment, isolated rat pulmonary artery was grown under normoxia (20% O2) or hypoxia (1% O2) at 37° C. for 24 hrs as was previously done (Wu BN, et al. Int J Immunopathol Pharmacol 24:925, 2011). The heart weight and body weight ratio (HW/BW) of the rats treated with one of SPAAX-1, SPAAX-1 RX complex, Sildenafil or Sildenafil RX complex each measured on the 21st hypoxic day. All animal care and the experimental protocols of this study were approved by the Animal Care and Use Committee of the Kaohsiung Medical University. Male Wistar rats (200-250 g), provided by the National Laboratory Animal Breeding and Research Center (Taipei, Taiwan), were housed under constant temperature and controlled illumination. Food and water were available ad libitum.
(§2) Whole right lung tissues of hypoxia-treated and untreated rats were isolated and cut into small strips and placed into an extraction buffer (Tris 10 mM, pH 7.0, NaCl 140 mM, PMSF 2 mM, DTT 5 mM, NP-40 0.5%, pepstatin A 0.05 mM and leupeptin 0.2 mM) for protein extraction, and then centrifuged at 12,500 g for 30 min. To measure the expression levels of the proteins, the total proteins were extracted and Western blotting analysis was performed as described previously (Bivalacqua T J, et al., 2013, TJ PLoSONE 8: e68028. doi:10.1371/journal. pone.0068028). Briefly, the protein extract was boiled to a ratio of 4:1 with a sample buffer (Tris 100 mM, pH 6.8, glycerol 20%, SDS 4% and bromophenol blue 0.2%). Electrophoresis was performed using 10% SDS-polyacrylamide gel (2 hr, 100 V, 40 mA, […] protein per lane). Separated proteins were transferred to PVDF membranes treated with 5% fat-free milk powder to block the nonspecific IgGs (90 min, 100 V) and incubated for one hour with a specific protein antibody. The blot was then incubated with anti-mouse or anti-goat IgG linked to alkaline phosphatase (1:1000) for 1 hr. Immunoreactive bands were visualized using horseradish peroxidase-conjugated secondary antibodies and subsequent electrochemiluminescence (ECL) detection (GE Healthcare Bio-Sciences Corp., Piscataway, N.J., U.S.A.). Mouse or rabbit monoclonal antibody of eNOS (Upstate, N.Y., U.S.A.), sGCα (Sigma-Adrich, CA, U.S.A., sGCβ (Santa Cruz, Calif., U.S.A.), PDE-5A (BD Tansduction, San Jose, Calif., U.S.A.), PKG (Calbiochem, San Diego, Calif., U.S.A.) ROCKII (Upstate, N.Y., U.S.A.), RhoA (Santa Cruze, Calif., U.S.A.) and the loading control protein β-actin (Sigma-Adrich, MO, U.S.A.) were used in our Western blot analysis.
(§3) The Western blotting analysis measurements were performed as per lung tissue.

ROCK II [1] = test: Western blotting of ROCK II expression in isolated rat pulmonary artery ring, short-term (acute) hypoxia or normoxia; format: cell-based
Description: as §1, §2, §3

sGCα1 [2] = test: Western blotting of sGCα1 expression in isolated pulmonary artery, short-term hypoxia; format: cell-based, rat
Description: as §1
Whole right lung tissues of hypoxia-treated and untreated rats were isolated and cut into small strips and placed into an extraction buffer (Tris 10 mM, pH 7.0, NaCl 140 mM, PMSF 2 mM, DTT 5 mM, NP-40 0.5%, pepstatin A 0.05 mM and leupeptin 0.2 mM) for protein extraction, and then centrifuged at 12,500 g for 30 min. To measure the expression levels of the proteins, the total proteins were extracted and Western blotting analysis was performed as described previously (Bivalacqua T J, et al., 2013, TJ PLoSONE 8: e68028. doi:10.1371/journal. pone.0068028). […]

hypoxic rats = test: Pulmonary artery wall thickness and muscularization (HE staining) after long-term hypoxia; format: in vivo, rat
Description: The right lobes of the rat lungs and heart of six rats from each group were cut and soaked in formalin, dehydrated through graded alcohols, and embedded in paraffin wax. The lung tissue specimens fixed with formalin (4%) were embedded in paraffin for one hour at 4° C., cut into 4-μm-thick sections, and subjected to H&E staining before examination by light microscope. In our histopathological study, we measured the thickening of the medial wall of the small intrapulmonary arteries under an Eclipse TE2000-S (Nikon) microscope. In the heart tissues, the 4-μm-thick paraffin sections were cut from paraffin-embedded tissue blocks and de-paraffinized by immersion in xylene and rehydrated as previously described (Bivalacqua T J, et al., PLoSONE 8: e68028. doi:10.1371/journal. pone.0068028). The slices were then dyed with H&E. After gently rinsing with water, each slide was dehydrated through graded alcohols and finally soaked in xylene twice. The relative cardiac weight of right ventricle (RV)/[left ventricle (LV)+intraventricular septum (S)] ratio (i.e. right heart index) was calculated using right ventricle/left ventricle+septum (RV/LV+S). Measurements were obtained with Histolab software (Microvision Instruments, Evry, France).

eNOS [3] = test: Immunohistochemistry of eNOS in pulmonary artery wall after long-term hypoxia; format: in vivo, rat
Description: For histological analysis, the rat pulmonary right lung sections or pulmonary artery were fixed in 4% formaldehyde for 1 hour at 4° C. After washing with phosphate buffer saline (PBS), they were sent for paraffin-embedded serial-sections. Serial cross-sections 7 μm thick were obtained from the cross-section of each pulmonary artery. Tissue sections were deparaffinized and rehydrated in an ethanol series. After tissue rehydration, endogenous peroxidase activity was quenched with 3% hydrogen peroxide for 30 minutes, and the sections were gently washed in PBS. Non-specific binding was blocked by incubation with 1% nonimmune bovine serum albumin (BSA) in PBS for 30 minutes at room temperature.
The tissue sections were incubated for 1 hour at room temperature with antibody against VEGF (ab1442, Millipore) or against eNOS (ab5589, Abcam) diluted 1:200 in PBS with 1% BSA. After being washed with PBS, the sections were incubated for 1 hour at room temperature with biotinylated goat antibody against rabbit (Dako, E-0432) and diluted 1:200 in PBS for 30 minutes at room temperature. The reaction was visualized by the addition of 3-3-diaminobenzidine (DAB) in a working solution of DAB substrate kit for peroxidase (vector lab, SK-4100) at room temperature for 5 minutes. The sections were washed in PBS for 10 minutes between each step, and counterstained with haematoxylin. […]

eNOS [4] = test: Western blotting of eNOS in lung tissue after long-term hypoxia; format: in vivo, rat; details: hypoxia 21 days; compared to normoxia control
sGCα1 [5] = test: Western blotting of sGCα1 in lung tissue after long-term hypoxia; format: in vivo, rat; details: hypoxia 21 days; compared to normoxia control
ROCK II [6] = test: Western blotting of ROCK II in lung tissue after long-term hypoxia; format: in vivo, rat; details: hypoxia 21 days; hypoxia 144.7±12.6%
PDE5A = details: hypoxia 21 days; % of the normal level; hypoxia 43.8±12.6%
[7] = test system: reactive oxygen species (ROS) of lung tissues; details: long-term hypoxia
Description: In our in vivo hypoxic experiments, 10-week old male Wistar rats were equally divided into four groups: a normoxia group, a hypoxia group, a hypoxia+SPAAX-1 or SPAAX-1 RX complex group, and a hypoxia+Sildenafil or Sildenafil RX complex group. All the rats were maintained on a 12-h light/12-hr dark cycle at 25±1° C. and were provided with food and water ad libitum. The normoxia group was housed in standard normoxic conditions and the other three treated groups were continuously housed in a hypoxic chamber (10% O2) for 21 days, except for a 30-min interval each day when the chamber was cleaned (FIG. 2). During which, a normoxic gas mixture was prepared from compressed air.
Pulmonary ROS was measured using 2′-7′-dichloro-fluorescein (H2DCF-DA, Molecular Probe, USA). Briefly, 10 μl of lung tissue extract was diluted 100-fold with cold PBS and labelled with 5 μmol/L 2′-7′-dichlorofluorescein, and the mixture was incubated at 37° C. for 30 minutes and put in a centrifuge (1000 rpm) for 5 min. Fluorescence was measured at 485 nm excitation and 530 nm emission to determine the concentration of H2O2 (FLUOstar Galaxy, Germany).

## Cn1c(=O)c2c(ncn2CCN2CCN(c3ccccc3Cl)CC2)n(C)c1=O.O=C1O[C@H]([C@@H](O)CO)C(O)=C1O [SPAAX-1 ascorbate complex, 7-[2-[4-(2-chlorobenzene)piperazinyl]ethyl]-1,3-dimethylxanthine.ascorbic acid]
VEGF
  VEGF in acute hypoxia: inhibited
ROCK II [1]; hypoxia for 24 hrs, versus control level in normoxia, hypoxia 180±10.2%
  expression of ROCK II in isolated hypoxic pulmonary artery: 140±9.0%
ROCK II [1]; normoxia for 24 hrs, 10 μm, versus non-treated controls
  Expression of ROCK II in isolated pulmonary artery ring: 48.2±5.5%
sGCα1 [2]
  SGC-a in hypoxia: neither SPAAX-1 ascorbate complex nor Sildenafil ascorbate complex significantly affected
Hypoxic rats; hypoxia 21 days, 5 mg/kg/day
  Small pulmonary arterial morphology (<150 μm): highly improved
Hypoxic rats; hypoxia 21 days, 5 mg/kg/day, hypoxia 165.8±5.4%
  hypoxia-induced pulmonary artery wall thickness: inhibited
Hypoxic rats; hypoxic rats, versus vehicle only
  muscularizations of distal pulmonary artery (HE staining): significantly lower
eNOS [3]
  eNOS immunostaining reactivity of pulmonary artery: restored the decay of eNOS
eNOS [4]
  eNOS expression in lung tissue: 139.7±16.9%
sGCα1 [5]
  sGCα1 expression in lung tissue: 40.4±8.4%
ROCK II [6]
  ROCKII expression in lung tissue: 50.32±7.9%
PDE5A
  PDE5A expression in lung tissue: 76.9±4.9%
[7]
  hypoxia-induced increase of dichlorofluorescein (ROS of lung tissues): reduced
